According to patent US20240325374A1, “INHIBITING INTRACELLULAR PATHOGENS” (THE RESEARCH INSTITUTE AT NATIONWIDE CHILDREN'S HOSPITAL, priority 2021, published 2024):

Experiments:
[1] = system: S. typhimurium-infected J774.1 macrophages; experiment: LDH release from Salmonella-infected macrophages; format: cell-based, murine; settings: 5 μM, 10 μM and 20 μM, after 24 h
Protocol: The strategy to identify host-targeted compounds is outlined in FIG. 1. Briefly, J774.1 macrophages in suspension at 3×10^6 cells/ml were infected with S. typhimurium at a multiplicity of infection (MOI) of 10 for 1 hour with orbital shaking at 80 rpm. […] The infected macrophages were resuspended in a medium containing 10 μg/ml gentamicin, seeded onto 96-well plates at 10^5 cells/well in 150 μl medium, and allowed to adhere to the well for three hours. The infected cells in each well were then treated with 25 μM of each compound from the ATP mimetic library using a multichannel pipette. […] After 24 hours of incubation, an LDH assay (Roche Applied Science, Indianapolis, IN) was performed using 50 μl of supernatant from each well. Absorbance at 570 nm was determined via a plate reader Spectra Max M3. […]
We developed a cell-based assay to screen 3000 compounds of an ATP-mimetic library purchased from ChemBridge using J774.1 macrophages for those that protect S. typhimurium-infected macrophages from death. The viability of Salmonella-infected J774.1 cells was determined by measuring LDH release from the infected cells. […] To examine whether the reduction in LDH release was due to the limited growth of the bacteria intracellularly, the infected cells were treated with various concentrations of KH-1, and the intracellular bacterial load was determined at 24 hours post-treatment. […]

[2] = system: S. typhimurium wild-type strain ATCC 14028; experiment: Bacterial growth in macrophages (intracellular CFU), wild-type S. typhimurium in J774.1; format: cell-based
Source text: (§1) Hoang et al., International Journal of Pharmaceutics, 2014. 477(1-2): p. 334-343.
The J774.1 cells were infected with S. typhimurium and treated with KH-2.

[3] = system: S. typhimurium; experiment: Broth antibacterial assay (OD600 in LB); format: cell-based; settings: KH-2 10 μM, 20 μM and 50 μM
Protocol: An equivalent amount of DMSO was added in a control group. The bacterial growth was monitored at an optical density at 600 nm (OD600) at the indicated time points using a plate reader Spectra Max M3.
Overnight cultures of S. typhimurium were sub-cultured (1:100) in fresh Luria-Bertani (LB) broth in presence of different concentration of KH-2 and incubated at 37° C. The vehicle control (DMSO) groups were included. The experiments were performed in 96-well plates. The bacterial growth was monitored at different time-points by measuring optical density at 600 nm (OD600).

[4] = system: S. typhimurium; experiment: KH-2 protection of mice from lethal S. typhimurium infection, survival; format: in vivo, BALB/c mice; settings: 0.5, 1.0, 2.5 and 5 mg/kg/day i.p., day 1 to day 12, oral infection 10^6 bacteria/mouse, survival to day 14
Protocol: Pathogen-free 6- to 8-week-old female BALB/c mice were purchased from Harlan Sprague. Mice (3 mice/group, except the vehicle control group) were provided food and water ad libitum in sterile microisolator cages and allowed to acclimatize for 3 days before challenge. Mice were orally infected with 10^6 bacteria/mouse (day 0) in 200 μl PBS. The infected mice were intraperitoneally given KH-2 at different doses (5 mg, 2.5 mg, 1 mg, and 0.5 mg/kg body weight/day) in 200 μl PBS from day 1 to day 12 post infection. Vehicle (DMSO) was added as the control group. The mice were monitored for survival until day 14 post infection. […] A mouse model of typhoid fever was used to assess the efficacy of KH-2 in increasing the survival rate of infected mice.

[5] = system: S. typhi strain TY2; experiment: Bacterial growth in macrophages (intracellular CFU), S. typhi in J774.1; format: cell-based; settings: infected J774.1, 24 hrs post treatment
Source text: as §1

[6] = system: PLB-985 neutrophil-like cells; experiment: Neutrophil reactive oxygen species production assay; format: cell-based; settings: various concentrations, luminol chemiluminescence for 1 hour
Protocol: PLB-985 cells that were cultured in RPMI supplemented with 10% FBS and penicillin-streptomycin (100 μg/ml each) were differentiated to a neutrophil-like phenotype by 6-day incubation in RPMI supplemented with 0.5% N,N-dimethylformamide, 0.5% FBS, 1% Nutridoma-SP (Roche; Mannheim, Germany), […] L-glutamine, and 1× penicillin/streptomycin. Media was replaced on day 3. On day 6 after differentiation, the medium was removed and replaced with 100 μl fresh medium containing different concentrations of KH-1-2. Cells in the positive control group were stimulated with 400 ng PMA/ml. Cells in the negative control group were treated with an equivalent concentration of DMSO. All groups were supplied with luminol (final concentration of 500 μM) and reactive oxygen species (ROS) production at 37° C. was monitored in triplicate by luminol-dependent chemiluminescence measured every 2 minutes for 1 hour using a Spectra Max M3 plate reader.

[7] = system: macrophages; experiment: Toxicity of compound alone to macrophages by LDH release; format: cell-based; settings: effective concentrations
[8] = system: uninfected mice; experiment: Toxicity study of KH-1-2 in vivo
Protocol: To examine the toxicity of KH-1-2, mice were intraperitoneally (i.p.) given KH-1-2 that was dissolved in 200 μl of polyethylene glycol 400 (PEG 400)-0.9% saline-ethanol (50:35:15) at 1 mg and 10 mg/kg of body weight per day for 12 consecutive days. Mice in the control groups received 200 μl of PEG-saline-ethanol. The experimental animals were observed daily throughout the study for clinical signs, and mortality. At the end of the experiment, mice were sacrificed, and liver, spleen, and kidney were collected, fixed in 4% paraformaldehyde for 72 hrs, processed and stained with hematoxylin and eosin (H&E) for histopathologic evaluation, which was performed at the Morphology Core at Nationwide Children's Hospital.
To examine the in vivo toxicity of KH-1-2, uninfected mice were given KH-1-2 intraperitoneally in 200 μl of polyethylene glycol 400 (PEG 400)-0.9% saline-ethanol (50:35:15) at 1 and 10 mg/kg body weight daily for 12 consecutive days. Mice in the control group were treated with an equal amount of diluent. Mice were monitored for clinical signs and at day 13, the liver, spleen, and kidney were collected for histopathologic evaluation.

[9] = system: ciprofloxacin-resistant S. typhimurium; experiment: Mouse model of typhoid fever, ciprofloxacin-resistant S. typhimurium, survival; format: in vivo, BALB/c mice
Protocol: S. typhi is a human-restricted pathogen and is unable to colonize in mice. However, S. typhimurium causes a typhoid fever-like disease in mice and is widely used as a model to study human typhoid fever. Johnson, R., E. Mylona, and G. Frankel, Cell Microbiol, 2018. 20(9): p. e12939. […] Mice were infected with the ciprofloxacin-resistant S. typhimurium at a lethal dose of 10^6 CFU per mouse in 200 μl PBS via the i.p. route.
After determining the maximum tolerable dose of KH-1-2 by the i.p. route (10 mg/kg of body weight per day), the protective efficacy of KH-1-2 as a treatment for typhoid fever was evaluated. Mice (4 or 5 mice per group) were infected at day 0 with a lethal dose of the ciprofloxacin-resistant S. typhimurium isolate as described above. One day post-infection, the infected mice were given KH-1-2 prepared in 200 μl PBS at 0.05, 0.1, and 0.25 mg/kg body weight per day via i.p. delivery for 14 consecutive days.
We next sought to examine the effectiveness of delivering KH-1-2 for controlling a ciprofloxacin-resistant S. typhimurium isolate in a mouse model of typhoid fever. Mice were challenged with a lethal dose of bacteria via oral gavage and the infected mice were i.p. treated with KH-1-2 prepared in 200 μl PBS at 0.05, 0.1, and 0.25 mg/kg body weight/day for 14 consecutive days. […] As expected, all mice in the control group were moribund before or at day 12 post-infection.

SMILES | lactate dehydrogenase (LDH) release from Salmonella infected J774.1 macrophages [1] | growth of Salmonella in J774.1 macrophages (intracellular CFU) ([2]; KH-2 5 μM, 10 μM and 20 μM, after 24 hours) | growth of Salmonella in Luria-Bertani (LB) bacterial growth media (OD600) [3] | survival of mice after lethal Salmonella infection [4] | EC50 ([2]; Salmonella enterica, infected J774.1 cells, CFU at 24 hrs post treatment, % of DMSO control, read-out: half maximal effective concentration (EC50) on S. typhimurium) [µM] | reduction in bacterial load in infected macrophages ([2]; in vitro treatment of Salmonella infection) | intracellular bacterial growth in combination with sub-optimal ciprofloxacin ([2]; infected macrophages, with sub-optimal dose of ciprofloxacin, 24 hours post-treatment) | intracellular growth of S. typhi, compared with KH-1 [5] | reactive oxygen species (ROS) production [6] | toxicity to macrophages as measured by LDH release [7] | liver histopathology ([8]; 1 mg/kg i.p. daily) | liver histopathology ([8]; 10 mg/kg i.p. daily) | maximum tolerable dose ([8]; i.p. route, mice) | clinical signs ([8]; uninfected mice, i.p., 1 and 10 mg/kg body weight daily, 12 consecutive days) | immune cell migration and apoptosis in liver, spleen, kidney ([8]; uninfected mice, i.p., 1 and 10 mg/kg daily, 12 days) | histologic evaluation of the liver, spleen, and kidney ([8]; uninfected mice, i.p., 1 and 10 mg/kg daily, 12 days, organs at day 13) | survival ([9]; 0.1 mg/kg body weight/day i.p., 14 consecutive days, lethal dose 10^6 CFU/mouse) [%] | survival versus control untreated group ([9]; 0.05, 0.1 and 0.25 mg/kg body weight/day i.p., 14 days, p<0.05)
COC(=O)c1cccc(COC(=O)c2cc(O)nc3ccccc23)c1 [KH-2, 3-(methoxycarbonyl)benzyl 2-hydroxy-4-quinolinecarboxylate] | reduced lactate dehydrogenase (LDH) release from Salmonella infected J774.1 macrophages | inhibits the growth of Salmonella in J774.1 macrophages | does not inhibit the growth of Salmonella in Luria-Bertani (LB) bacterial growth media | protects mice from lethal Salmonella infection |  |  |  |  |  |  |  |  |  |  |  |  |  | 
O=C1c2oc3ccccc3c(=O)c2C(c2cccc(Oc3ccccc3)c2)N1Cc1ccc(F)cc1 (stereo not drawn) [KH-1-2, 2-(4-fluorobenzyl)-1-(3-phenoxyphenyl)-1,2-dihydrochromeno[2,3-c] pyrrole-3,9-dione] |  |  |  |  | 2.6 | 8- to 10 fold | further reduces Salmonella growth inside macrophages | more effective at reducing the intracellular growth of S. typhi | does not involve in induction of reactive oxygen species (ROS) production | not toxic to macrophages at the effective concentrations | no adverse effects | minimal alterations including increased infiltration of lymphocytic cells and neutrophils | 10 mg/kg of body weight per day | no adverse clinical signs | No increase in immune cell migration or significant apoptosis | no dose-related macroscopic or microscopic findings | 60 | significantly greater survival
